tested on: Staphylococcus aureus 1199 B NorA+; type: cell-based; conditions: combination with ciprofloxacin, broth microdilution checkerboard, 35° C. 20 hours; FIC index ≦0.5 synergistic, 0.5–2.0 additive, >2.0 antagonistic
Source text: Testing method for inhibition of the efflux pump of Staphylococcus aureus 1199B NorA^+
[…]. Victor Lorian, Md., Fourth edition 1996, pp 333–338).
In short, the assay involves broth microdilution method performed as recommended by the National Committee for Clinical Laboratory Standards (NCCLS) 1997 (Methods for Dilution of Antimicrobial Susceptibility Tests for Bacteria that Grow Aerobically, Fourth edition; Approved Standard, NCCLS document M7-A4, vol. 17, No. 2). The test organism used for the assay is Staphylococcus aureus 1199 B NorA^+.
[…]. Stock solutions of the efflux pump inhibitors tested are prepared in dimethyl sulfoxide (DMSO) at a final concentration of 5 mg/ml. Stock solutions are further diluted in Mueller Hinton Broth as per the need of the assay. Ciprofloxacin is dissolved in water.
The checkerboard assay is performed in microtiter plates. […] The efflux pump inhibitor is diluted in the Y-axis, each row containing an equal concentration of efflux pump inhibitor. The result of these manipulations is that each well of the microtiter plate contains a unique combination of concentrations of the two agents. Bacterial inoculum is added at 5×10^5 CFU/ml. Microtiter plates are incubated at 35° C. for 20 hours. Reading is done by visibly noting turbidity and confirmed using a microtiter plate reader (Molecular Devices). The FIC index is calculated as
(A) is the concentration of the experimental efflux pump inhibitor in the well that is the lowest inhibitory concentration in the Y-axis. (MICA) is the MIC of Staphylococcus aureus to experimental efflux pump inhibitor alone. FICA is the fractional inhibitory concentration of an experimental efflux pump inhibitor. […] (Antimicrobial Combination In Antibiotics in Laboratory Medicine, Ed. Victor Lorian, Md., Fourth edition 1996, pp 333–338).

Molecule	FIC INDEX
CC(=O)OC1CCN(c2cc3c(cc2F)c(=O)c(C(=O)O)cn3C2CC2)CC1 [Example 11 (NorA), 1-Cyclopropyl-6-fluoro-1,4-dihydro-7-(4′-acetoxypiperidin-1-yl)-4-oxo-quinoline-3-carboxylic acid]	0.282
Nc1c(F)c(N2CCOCC2)c(F)c2c1c(=O)c(C(=O)O)cn2-c1ccccc1C(F)(F)F [Example 40 (NorA), 5-Amino-1-(2′-trifluoromethylphenyl)-6,8-difluoro-1,4-dihydro-7-(morpholin-1-yl)-4-oxo-quinoline-3-carboxylic acid]	0.314
C[C@H](N)C(=O)N[C@@H](C)C(=O)NC1CCN(c2c(F)c(N)c3c(=O)c(C(=O)O)cn(C4CC4)c3c2F)C1 (stereo partly drawn) [Example 27 (NorA), 5-Amino-1-cyclopropyl-6,8-difluoro-1,4-dihydro-7-{3′-(L-Ala-L-Alaamino)pyrrolidin-1-yl}-4-oxo-quinoline-3-carboxylic acid]	0.128
Nc1c(F)c(N2CCC(N3CCCC3)CC2)c(F)c2c1c(=O)c(C(=O)O)cn2C1CC1 [Example 32 (NorA), 5-Amino-1-cyclopropyl-6,8-difluoro-1,4-dihydro-7-{4′-(1-pyrrolidinyl)piperidin-1-yl)-4-oxo-quinoline-3-carboxylic acid]	0.340
C[C@H]1CCc2c(N3CCC(O)CC3)c(F)cc3c(=O)c(C(=O)OC4CCN(C)CC4)cn1c23 [Example 56 (NorA), (S)-(−)-N-methylpiperidino-9-fluoro-6,7-dihydro-8-(4′-hydroxypiperidin-1-yl)-5-methyl-1-oxo-1H,5H-benzo[i,j]quinolizine-2-carboxylic acid]	0.180
CCn1cc(C(=O)O)c(=O)c2cc(F)c(N3CCN(CCN4CCOC4=O)CC3)c(F)c21 [Example 3 (NorA), 1-Ethyl-6,8-fluoro-1,4-dihydro-7-(4′-{2′-(2′-oxazolidin-1yl)ethyl}piperazin-1-yl)-4-oxo-quinoline-3-carboxylic acid]	0.188
CN1CCN(c2cc3c(cc2F)c(=O)c(C(=O)O)cn3-c2ccccc2C(F)(F)F)CC1(C)C [Example 39 (NorA), 1-(2′-Trifluoromethylphenyl)-6-fluoro-1,4-dihydro- -7-(3′,3′,4′-trimethylpiperazin-1-yl)-4-oxo-quinoline-3-carboxylic acid]	0.282
O=C(O)c1cn(-c2ccc(F)cc2F)c2nc(NC3CCN(c4cc5c(cc4F)c(=O)c(C(=O)O)cn5C4CC4)C3)c(F)cc2c1=O (stereo not shown) [Bis compound 1, N-1-{7-(1-cyclopropyl-6-fluoro-1,4-dihydro-4-oxo-quinoline-3-carboxylic acid)}-N-3-amino-{7-(1-(2,4-difluorophenyl)-6-fluoro-1,4-dihydro-4-oxo-1,8-naphthyridine-3-carboxylic acid)}-pyrrolidine]	0.253
Cc1c(F)c(N2CCC(Nc3c(F)c(N)c4c(=O)c(C(=O)O)cn(C5CC5)c4c3F)CC2)cc2c1c(=O)c(C(=O)O)cn2C1CC1 [Bis compound 6, N-1-{7-(1-cyclopropyl-6-fluoro-5-methyl-1,4-dihydro-4-oxo-quinolone-3-carboxylic acid)}-N-4-amino{7-(1-cyclopropyl-6,8-difluoro-5-amino-1,4-dihydro-4-oxo-quinoline-3-carboxylic acid)}-piperidine]	0.304
CCn1cc(C(=O)O)c(=O)c2cc(F)c(N3CCC(OC(C)=O)CC3)c(F)c21 [Example 2 (NorA), 1-Ethyl-6,8-fluoro-1,4-dihydro-7-(4′-acetoxypiperidin-1-yl)-4-oxo-quinoline-3-carboxylic acid]	0.314
CC1CC(C)CN(c2cc3c(cc2F)c(=O)c(C(=O)O)cn3-c2ccc(F)cc2F)C1 (stereo not shown) [Example 45 (NorA), 1-(2′,4′-Difluorophenyl)-6-fluoro-1,4-dihydro-7-(3′,5′-dimethylpiperidin-1-yl)-4-oxo-quinoline-3-carboxylic acid]	0.192
CCC(=O)OC1CCN(c2c(F)c(N)c3c(=O)c(C(=O)O)cn(C4CC4)c3c2F)CC1 [Example 30 (NorA), 5-Amino-1-cyclopropyl-6,8-difluoro-1,4-dihydro-7-(4′-propionoxypiperidin-1-yl)-4-oxo-quinoline-3-carboxylic acid]	0.314
CCOC1CCN(c2cc3c(c(C)c2F)c(=O)c(C(=O)O)cn3C2CC2)CC1 [Example 17 (NorA), 1-Cyclopropyl-6-fluoro-1,4-dihydro-5-methyl-7-(4′-ethoxypiperidin-1-yl)-4-oxo-quinoline-3-carboxylic acid]	0.378
CCn1cc(C(=O)O)c(=O)c2cc(F)c(N3CCc4ccccc4C3)cc21 [1 (NorA), 1-Ethyl-6-fluoro-1,4-dihydro-7-(1′,2′,3′,4′-tetrahydroisoquinolin-2-yl)-4-oxo-quinoline-3-carboxylic acid]	0.314
CCn1cc(C(=O)O)c(=O)c2c(N)c(F)c(N3CC(N)CC3C)c(F)c21 (stereo not shown) [5 (NorA), 5-Amino-1-ethyl-6,8-difluoro-1,4-dihydro-7-(3′-amino-5′-methylpyrrolidin-1-yl)-4-oxo-quinoline-3-carboxylic acid]	0.378
CCn1cc(C(=O)O)c(=O)c2c(N)c(F)c(N3CCC(N)CC3)c(F)c21 [Example 6 (NorA), 5-Amino-1-ethyl-6,8-difluoro-1,4-dihydro-7-(4′-aminopiperidin-1-yl)-4-oxo-quinoline-3-carboxylic acid]	0.314
CC1CN(c2cc3c(cc2F)c(=O)c(C(=O)O)cn3C2CC2)CC(C)C1O (stereo not shown) [Example 14 (NorA), 1-Cyclopropyl-6-fluoro-1,4-dihydro-7-(4′-hydroxy-3′,5′-dimethylpiperidin-1-yl)-4-oxo-quinoline-3-carboxylic acid]	0.314
N-3-azabycyclo{7-(1-(2,4-difluorophenyl)-6-fluoro-1,4-dihydro-4-oxo-1,8-naphthyridine-3-carboxylic acid)}-[1∝,5∝,6∝]-N-6-amino-{7-1-(2,4-difluorophenyl)-6-fluoro-1,4-dihydro-4-oxo-1,8-naphthyridine-3-carboxylic acid)}-3.1.0]hexane [Bis compound 9]	0.314
CN(C)C1CCN(c2cc3c(cc2F)c(=O)c(C(=O)O)cn3C2CC2)CC1 [Example 12 (NorA), 1-Cyclopropyl-6-fluoro-1,4-dihydro-7-(4′-(N-dimethylamino)piperidin-1-yl)-4-oxo-quinoline-3-carboxylic acid]	0.188
Nc1c(F)c(NC2CCN(c3nc4c(cc3F)c(=O)c(C(=O)O)cn4C3CC3)C2)c(F)c2c1c(=O)c(C(=O)O)cn2C1CC1 (stereo not shown) [Bis compound 3]	0.314
5-Amino-1-ethyl-6,8-difluoro-1,4-dihydro-7-[(1∝,5∝,6∝)-6′-(N-t-butoxycarbonylamino)-3-azabicyclo[3.1.0]-hex-3-yl}-4-oxo-quinoline-3-carboxylic acid [Example 8 (NorA)]	0.314
C[C@H]1CCc2c(N3CCC(O)C(C)(C)C3)c(F)cc3c(=O)c(C(=O)O)cn1c23 (stereo partly drawn) [Example 55 (NorA), S-(−)-9-Fluoro-6,7-dihydro-8-(4′-hydroxy-3′,3′-dimethylpiperidin-1-yl)-5-methyl-1-oxo-1H,5H-benzo[i,j]quinolizine-2-carboxylic acid]	0.378

— patent US7098219B2, “Inhibitors of cellular efflux pumps of microbes” (Wockhart Limited, priority 2000, dated 2006)
